According to PubChem BioAssay (NCI):
Where “and” joins values, the source holds several entries; their conditions need not be identical. Equal entries are not always repeated.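 Briefly, cells in 96-well plates were exposed to five compound concentrations for 48 h, and endpoints were estimated by linear interpolation. Here, GI50 denotes the concentration required for 50% inhibition of growth. The concentration for full growth arrest is given as TGI.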

Key:
Experiment in all cases: NCI anticancer screen, dose series, 48 h
[1] = system: COLO 205 colon
[2] = system: T-47D breast
[3] = system: MCF7 breast
[4] = system: MDA-MB-231 breast
[5] = system: HS 578T breast

SMILES | GI50 [1] | TGI [1] | GI50 [2] | TGI [2] | GI50 [3] | TGI [3] | GI50 [4] | TGI [4] | GI50 [5] | TGI [5]
Cc1nnc(-c2ccc(C)c(-c3ccc(C(=O)Nc4cccc(C#N)c4)cc3)c2)o1 | > 25 µM | > 25 µM | > 15.9 µM | > 25 µM | > 25 µM | > 25 µM | > 25 µM | > 25 µM | > 25 µM | > 25 µM
CNC(=O)OCc1c(COC(=O)NC)c(-c2ccc(-c3ccccc3)cc2)n(C)c1C |  | 16.5 µM |  | 35.2 µM |  | 14.5 µM |  | 10.2 µM |  | > 68.2 µM
CN(C)Cc1cc(C(F)(F)F)ccc1C(O)(c1ccccc1)c1ccccc1 |  | 20.8 µM |  | 47.3 µM |  | 27.4 µM |  | 24.8 µM |  | > 100 µM
C=C(C)[C@@H]1CC[C@]2(COCCCN)CC[C@]3(C)[C@H](CC[C@@H]4[C@@](C)(CCCNCCCN)[C@H](C(=C)C)CC[C@]43C)[C@@H]12 | 1.78 µM | 3.48 µM | 1.78 µM | 3.63 µM | 1.59 µM | 3.22 µM | 1.8 µM | 3.29 µM | 2.16 µM | 5.54 µM
CCCCCCCCn1ccc2cc(NC(=O)Cn3cc(CN4CCCCCC4)nn3)ccc21 | 1.68 µM | 3.25 µM | 1.66 µM | 3.78 µM | 1.83 µM | 3.63 µM | 1.74 µM | 3.47 µM | 1.91 µM | 4.16 µM
O=C1C(=O)c2ccccc2C(O)=C1C(C1=C(O)c2ccccc2C(=O)C1=O)c1ccc(Cl)cc1 |  | 35.6 µM |  | > 57.7 µM |  | 11.4 µM |  | 22.7 µM |  | 66.4 µM
Cc1cn(C2CC(OC(=O)c3ccc(Cl)cc3)C(COC(=O)c3ccc(Cl)cc3)O2)c(=O)[nH]c1=O (stereo unspecified) |  | > 100 µM |  | > 100 µM |  | > 100 µM |  |  |  | > 100 µM
N/N=C\c1c2ccccc2c(=O)n2c1oc1ccccc12 | 18.3 µM | 34.8 µM | 20.5 µM | 39.9 µM |  |  | 10.8 µM | 25 µM |  | 
CSC(SC)(C(=O)O)c1cc(-c2c(Cl)cccc2Cl)no1 |  | > 100 µM |  | > 100 µM |  | > 100 µM |  | > 100 µM |  | > 100 µM
Nc1ncc(-c2cnn(C3CCNCC3)c2)cc1-c1nc2cc(Cl)ccc2o1 | 1.41 µM | 2.91 µM | 1.62 µM | 3.34 µM | 1.14 µM | 2.68 µM | 1.66 µM | 3.23 µM | 0.385 µM | 1.77 µM
C=CC(=O)N1CCC(Oc2cc3c(Nc4ccc(Cl)c(Cl)c4F)ncnc3cc2OC)CC1 | 4.26 µM and 3.52 µM | 17.4 µM and > 10 µM | < 0.01 µM and 0.0178 µM | 25.9 µM and > 10 µM | 2.05 µM and 1.42 µM | 21.7 µM and > 10 µM | 3.79 µM and 1.65 µM | 23.8 µM and > 9.63 µM | 3.61 µM and 1.74 µM | 44.1 µM and 8.16 µM
C=C(C)C1CC2(C)C(C)CC(O)CC2C(OC(=O)C=C(C)C)C1O (stereo unspecified) |  | 32.4 µM |  | > 100 µM |  | 86 µM |  | > 100 µM |  | > 100 µM
NC(CSC(c1ccccc1)(c1ccccc1)c1ccccc1)C(=O)NCC(=O)O (stereo unspecified) | 3.39 µM | > 100 µM | 11.6 µM | > 100 µM | 3.87 µM | > 100 µM | 2.65 µM | 9.42 µM | 3.29 µM | 25.1 µM
CN(c1ccc(NC(=O)Nc2c(Cl)cccc2Cl)cc1)c1ccnc(Nc2cccc(CS(C)(=O)=O)c2)n1 | 0.16 µM | 11.9 µM | 4.46 µM | 13.2 µM | 2.82 µM | > 14.3 µM | 4.49 µM | 16.9 µM | 4.35 µM | > 17.6 µM
C=C1c2c(C)nn(-c3ccc(C#CCOC4OC(CO)C(O)C(O)C4O)cc3)c2N(C)C23C[C@H]1C1(C)c4c(C)nn(-c5ccc(C#CCOC6OC(CO)C(O)C(O)C6O)cc5)c4N(C)C(C)(C[C@H]12)C3 (stereo partly specified) | 1.47 µM | 2.88 µM | 0.687 µM | 6.8 µM | 1.38 µM | 3.2 µM | 1.5 µM | 3.06 µM | 0.472 µM | 9.85 µM
CCCCCCCCCCCCCCCCCCOC[C@H](COP(=O)(O)O[C@H]1[C@H](O)[C@@H](O)[C@H](O)C[C@H]1O)OC | 26.6 µM and 11 µM | > 100 µM and 24.2 µM | > 100 µM and 16.9 µM | > 100 µM and 37.4 µM | > 100 µM and 17.3 µM | > 100 µM and 32.2 µM | > 100 µM and 13.6 µM | > 100 µM and 27.6 µM | > 100 µM and 17.9 µM | > 100 µM and 34.8 µM
COc1ccc2c(c1)NC1=C(C(=O)OC1)C2c1cc(OC)c(OC)c(OC)c1 (stereo unspecified) | < 0.01 µM | < 0.01 µM | 25.6 µM | > 100 µM | < 0.01 µM | > 100 µM | < 0.01 µM | < 0.01 µM | < 0.01 µM | > 100 µM
C[C@]12CCc3sc(Nc4ccc(OC(F)(F)F)cc4)nc3C1=CC[C@@H]1[C@@H]2CC[C@]2(C)C(=O)CC[C@@H]12 | 2.61 µM | 6.76 µM | 2.15 µM | 6.43 µM | 1.82 µM | 4.14 µM | 2.42 µM | 7.84 µM | 1.48 µM | 5.22 µM

SMILES | GI50 [1] | TGI [1] | GI50 [2] | TGI [2] | GI50 [3] | TGI [3] | GI50 [4] | TGI [4] | GI50 [5] | TGI [5]
CCOc1cccc(/C=N/NC(=O)c2cccc(Nc3ccnc(C(F)(F)F)c3)c2)c1O | 0.532 µM | 18.4 µM | 0.814 µM | 19 µM | 0.945 µM | 21.1 µM | 0.888 µM | > 91.1 µM | 5.53 µM | 72.7 µM
CCN1CCCc2cc3c(C(F)(F)F)cc(=O)oc3cc21 |  | > 100 µM |  | > 100 µM |  | > 100 µM |  | > 100 µM |  | 
CC1(C)N=C(N)N=C(N)N1c1ccc(CCC(=O)Nc2ccc(S(=O)(=O)F)cc2)c(Cl)c1 | 2.52 µM | > 100 µM | 12.4 µM | > 100 µM | 0.515 µM | > 100 µM | > 64.9 µM | > 100 µM | > 84.7 µM | > 100 µM
O=C(Oc1ccc[nH]c1=O)c1cc([N+](=O)[O-])cc([N+](=O)[O-])c1 | > 100 µM | > 100 µM | 73.2 µM | > 100 µM | > 100 µM | > 100 µM | > 100 µM | > 100 µM | > 100 µM | > 100 µM
CC(C)C(O)(C(C)C)C(C)C |  | > 100 µM |  | > 100 µM |  | > 100 µM |  | > 100 µM |  | > 100 µM
O=C1C=CC(=O)C2C1C1(Cl)C(Cl)=C(Cl)C2(Cl)C1(Cl)Cl (stereo unspecified) | 11.5 µM | 27.2 µM | 4.95 µM | 22.7 µM | 8.55 µM | 31.1 µM | 3.62 µM | 16.4 µM | 2.51 µM | 7.92 µM
CCN(CC)CCNC(Cc1ccccc1)c1ccc(OCc2ccccc2)cc1 (stereo unspecified) | 1.79 µM | 3.4 µM |  |  | 3.03 µM | 12 µM | 1.92 µM | 6.65 µM | 4.32 µM | 23.8 µM
COc1ccc2c(c1)C(=O)/C(=C/c1cccc(OCC(=O)c3ccccc3)c1)O2 | 1.9 µM | 3.57 µM | 2.04 µM | 4.88 µM | 4.2 µM | 33.7 µM | 7.62 µM | 23.2 µM | 13.8 µM | 48.1 µM
CN(C)C/C=C/C(=O)Nc1ccc(C(=O)N[C@@]2(C)CCC[C@@H](Nc3ncc(Cl)c(-c4c[nH]c5ccccc45)n3)C2)nc1 | 0.01 µM | 0.026 µM | 0.0218 µM | 0.565 µM |  |  | 0.0145 µM | 1.22 µM | 0.022 µM | 0.0877 µM
COc1ccc(C(C#N)NC23CC4CC(CC(C4)C2)C3)cc1 (stereo unspecified) |  | > 100 µM |  | > 100 µM |  | > 100 µM |  | > 100 µM |  | > 100 µM
O=C1NC(=S)S/C1=C/c1ccc2c(c1)OCO2 | > 100 µM | > 100 µM | > 100 µM | > 100 µM | > 100 µM | > 100 µM | > 100 µM | > 100 µM | 36.8 µM | > 100 µM
Nc1n[nH]c2cccc(C#Cc3cccc(NC(=O)c4cccc(C(F)(F)F)c4)c3)c12 | 3.65 µM | 15.1 µM | 1.81 µM | 8.1 µM | 3 µM | 15.8 µM | 1.5 µM | 6.5 µM | 1.96 µM | 6.09 µM
CCN(CC)CCCC(CCl)Nc1ccnc2cc(Cl)ccc12 (stereo unspecified) | 29.5 µM and 15.1 µM | > 100 µM | 49.2 µM and 34.1 µM | > 100 µM | 23.9 µM and 27.9 µM | 75.2 µM and > 87.2 µM | 16.3 µM and 5.11 µM | 79.5 µM and > 43.1 µM | 17.3 µM and 18.1 µM | 42.5 µM and 44.3 µM
COc1ccc2c(c1)C(=O)CCc1cc(OC)c(OC)c(OC)c1-2 | < 0.01 µM | 16.9 µM |  |  |  | > 100 µM | < 0.01 µM | > 100 µM |  | 0.0576 µM
COCCOC(=O)C1=C(O)c2ccccc2S(=O)(=O)N1C |  | > 100 µM |  | > 100 µM |  |  |  | > 100 µM |  | > 100 µM
CC(C)CNc1nc(-c2ccccc2Cl)nc2ccccc12 | 20.3 µM | 50 µM | 35.2 µM | > 100 µM | 22.6 µM | 47.7 µM |  |  | 18 µM | 37.3 µM
COc1ccc2c(c1)OC1=C(C(=O)OC1)C2c1cc(OC)c2c(c1)OCCO2 (stereo unspecified) | 0.0362 µM | 0.13 µM |  |  | 0.0352 µM | > 100 µM | 0.156 µM | > 94.6 µM | 0.0361 µM | > 100 µM
